# Assay results reported in US11731943B2, “Therapeutic compounds, compositions and methods of use thereof” (priority 2016, dated 2023).
# pIC50, pKi: −log10 of the molar value. Where two headings read alike, the source gives them in different places.
# What was measured:
# [1] = molecular target: isolated recombinant JAK2 kinase domain (Homo sapiens (Human), UniProt O60674); experiment: JAK2 enzyme assay (Caliper LabChip, Ki); assay type: biochemical
# Method in brief: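 Recombinant human JAK1 or JAK2 kinase domain phosphorylating a 5-carboxyfluorescein-labelled JAK3-derived peptide; 30 min at 22 °C, stopped with EDTA (50 mM final). Phosphorylated product measured as a fraction of total peptide by Caliper LabChip mobility shift.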
# [2] = molecular target: isolated recombinant JAK1 kinase domain (Homo sapiens (Human), UniProt P23458); experiment: JAK1 enzyme assay (Caliper LabChip, Ki); assay type: biochemical
# isolated recombinant JAK1 kinase domain, sequence (P23458 875-1153): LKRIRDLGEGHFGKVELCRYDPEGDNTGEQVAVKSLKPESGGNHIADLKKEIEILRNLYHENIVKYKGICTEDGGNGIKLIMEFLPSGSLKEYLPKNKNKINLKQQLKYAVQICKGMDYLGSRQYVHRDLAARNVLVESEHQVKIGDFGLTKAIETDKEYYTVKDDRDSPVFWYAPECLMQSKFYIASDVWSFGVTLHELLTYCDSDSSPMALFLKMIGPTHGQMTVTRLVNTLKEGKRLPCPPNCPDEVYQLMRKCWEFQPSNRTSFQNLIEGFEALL
# Method in brief: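 Recombinant human JAK1 kinase domain phosphorylating an N-terminally 5-carboxyfluorescein-labelled JAK3-derived peptide, 30 min at 22 °C, stopped with EDTA (50 mM final). Phosphorylated fraction of total peptide read by Caliper LabChip mobility shift; Ki from Morrison tight-binding fit corrected for ATP competition (Ki=Ki,app/(1+[ATP]/Km,app)).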
# [3] = tested on: JAK1-dependent STAT6 phosphorylation downstream of IL-13 stimulation in BEAS-2B human bronchial epithelial cells; experiment: JAK1 pathway assay in BEAS-2B cells (IL-13-pSTAT6, MSD); assay type: cell-based
# [4] = Homo sapiens, BEAS-2B, BEAS-2B cells, IL-13 stimulation, read-out: IL-13 p-STAT6 BEAS-2B IC50
# isolated recombinant JAK2 kinase domain, sequence (O60674 849-1124): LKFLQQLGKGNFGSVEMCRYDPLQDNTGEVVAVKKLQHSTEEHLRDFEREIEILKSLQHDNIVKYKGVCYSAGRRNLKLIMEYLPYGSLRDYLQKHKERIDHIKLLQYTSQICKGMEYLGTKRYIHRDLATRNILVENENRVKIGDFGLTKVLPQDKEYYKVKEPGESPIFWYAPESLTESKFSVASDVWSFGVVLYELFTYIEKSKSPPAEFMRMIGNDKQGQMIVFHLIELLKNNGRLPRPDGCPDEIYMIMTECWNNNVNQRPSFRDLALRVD
Structure (SMILES),pKi [1],pKi ([2]; read-out: JAK1 Ki),"pIC50 [3, 4]",pKi [2],"pIC50 ([3]; Homo sapiens, BEAS-2B, read-out: IL-13 p-STAT6 BEAS-2B IC50, BEAS-2B cells, IL-13 stimulation)","pIC50 ([3]; BEAS-2B cells, IL-13 stimulation, read-out: IL-13 p-STAT6 BEAS-2B IC50)"
"N#CCC1(n2cc(C(N)=O)c(NC(=O)C3CC3)n2)CCN(Cc2ccc(-n3nccn3)c(O)c2)CC1F (stereo not drawn) [Example 286, 1-[4-(cyanomethyl)-3-fluoro-1-[[3-hydroxy-4-(triazol-2-yl)phenyl]methyl]-4-piperidyl]-3-(cyclopropanecarbonylamino) pyrazole-4-carboxamide]",9.40,9.37,7.28,–,–,–
"COC(=O)Nc1nn(C2(CC#N)CCN(CC3CCC(c4ccccc4)CC3)CC2F)cc1C(N)=O (stereo not drawn) [Example 235, methyl N-[4-carbamoyl-1-[4-(cyanomethyl)-3-fluoro-1-[(4-phenylcyclohexyl)methyl]-4-piperidyl]pyrazol-3-yl]carbamate]",9.17,9.49,7.59,–,–,–
"N#CC[C@]1(n2cc(C(N)=O)c(NC(=O)C3CC3)n2)CC[C@H](N2CC(C(F)(F)F)C2)CC1 (single isomer, unassigned) [Example 8]",7.96,8.77,6.71,–,–,–
"N#CC[C@]1(n2cc(C(N)=O)c(NC(=O)C3CC3)n2)CC[C@@H](N2CC(F)C2)CC1 [Example 180, 1-[1-(cyanomethyl)-4-(3-fluoroazetidin-1-yl)cyclohexyl]-3-(cyclopropanecarbonylamino) pyrazole-4-carboxamide]",7.76,–,–,8.26,6.77,–
"N#CC[C@]1(n2cc(C(N)=O)c(NC(=O)C3CC3)n2)CC[C@@H](NCC(F)(F)F)CC1 (single isomer, unassigned) [Example 1]",6.60,–,< 6.00,< 6.25,–,–
"COC(=O)Nc1nn(C2(CC#N)CCN(Cc3cc(O)cc(F)c3)CC2F)cc1C(N)=O (stereo not drawn) [Example 293, methyl N-[4-carbamoyl-1-[4-(cyanomethyl)-3-fluoro-1-[(3-fluoro-5-hydroxy-phenyl)methyl]-4-piperidyl]pyrazol-3-yl]carbamate]",9.47,9.52,7.26,–,–,–
"N#CCC1(n2cc(C(N)=O)c(NC(=O)C3CC3C#N)n2)CCN(Cc2cc(O)c(-c3ccccc3)cc2F)CC1F (stereo not drawn) [Example 240, 3-[(2-cyanocyclopropanecarbonyl)amino]-1-[4-(cyanomethyl)-3-fluoro-1-[(2-fluoro-5-hydroxy-4-phenyl-phenyl)methyl]-4-piperidyl]pyrazole-4-carboxamide]",9.54,9.72,7.15,–,–,–
"CCn1ccc(-c2ccc(CN3CCC(CC#N)(n4cc(C(N)=O)c(NC(=O)OC)n4)C(F)C3)cc2)n1 (stereo not drawn) [Example 216, methyl N-[4-carbamoyl-1-[4-(cyanomethyl)-1-[[4-(1-ethylpyrazol-3-yl)phenyl]methyl]-3-fluoro-4-piperidyl]pyrazol-3-yl]carbamate]",9.15,9.13,7.40,–,–,–
"COC(=O)Nc1nn(C2(CC#N)CCN(Cc3ccc(C4=CCCC4)c(O)c3)CC2F)cc1C(N)=O (stereo not drawn) [Example 269, methyl N-[4-carbamoyl-1-[4-(cyanomethyl)-1-[[4-(cyclopenten-1-yl)-3-hydroxy-phenyl]methyl]-3-fluoro-4-piperidyl]pyrazol-3-yl]carbamate]",9.26,9.22,7.46,–,–,–
"COC(=O)Nc1nn(C2(CC#N)CCN(Cc3cc(O)c(-c4ccccc4)cc3F)CC2)cc1C(N)=O [Example 206, methyl N-[4-carbamoyl-1-[4-(cyanomethyl)-1-[(2-fluoro-5-hydroxy-4-phenyl-phenyl)methyl]-4-piperidyl]pyrazol-3-yl]carbamate]",9.52,9.74,7.48,–,–,–
"CCc1ccc(-c2ccc(CN3CCC(CC#N)(n4cc(C(N)=O)c(NC(=O)C5CC5)n4)C(F)C3)cc2O)cc1 (stereo not drawn) [Example 212, 1-[4-(cyanomethyl)-1-[[4-(4-ethylphenyl)-3-hydroxy-phenyl]methyl]-3-fluoro-4-piperidyl]-3-(cyclopropanecarbonylamino) pyrazole-4-carboxamide]",9.52,9.66,7.57,–,–,–
"COC(=O)Nc1nn(C2(CC#N)CCN(Cc3ccc(-c4ncco4)cc3)CC2F)cc1C(N)=O (stereo not drawn) [Example 278, methyl N-[4-carbamoyl-1-[4-(cyanomethyl)-3-fluoro-1-[(4-oxazol-2-ylphenyl)methyl]-4-piperidyl]pyrazol-3-yl]carbamate]",8.89,8.96,7.35,–,–,–
"N#CCC1(n2cc(C(N)=O)c(NC(=O)C3CC3)n2)CCN(CC2CCC(c3ccccc3)CC2)CC1F (stereo not drawn) [Example 234, 1-[4-(cyanomethyl)-3-fluoro-1-[(4-phenylcyclohexyl)methyl]-4-piperidyl]-3-(cyclopropanecarbonylamino) pyrazole-4-carboxamide]",9.00,9.57,–,–,–,7.51
N#CC[C@]1(n2cc(C(N)=O)c(NC(=O)C3CC3)n2)CC[C@@H](N2CC(OCc3ccccc3)(C(F)(F)F)C2)CC1 [Example 133],7.81,8.60,6.79,–,–,–
"N#CCC1(n2cc(C(N)=O)c(NC(=O)C3CC3)n2)CCN(Cc2ccc(-c3ccc(C(F)(F)F)cc3)cc2)CC1 [Example 151, 1-[4-(cyanomethyl)-1-[[4-[4-(trifluoromethyl)phenyl]phenyl]methyl]-4-piperidyl]-3-(cyclopropanecarbonylamino) pyrazole-4-carboxamide]",6.81,8.47,6.54,–,–,–
"N#CCC1(n2cc(C(N)=O)c(NC(=O)C3CC3)n2)CCN(Cc2ccc(-c3ccccc3)nc2F)CC1F (stereo not drawn) [Example 201, 1-[4-(cyanomethyl)-3-fluoro-1-[(2-fluoro-6-phenyl-3-pyridyl)methyl]-4-piperidyl]-3-(cyclopropanecarbonylamino) pyrazole-4-carboxamide]",9.64,9.62,7.64,–,–,–
"N#CCC1(n2cc(C(N)=O)c(NC(=O)C3CC3)n2)CCN(C(=O)NC2CC(F)(F)C2)CC1 [Example 21, 4-(4-Carbamoyl-3-(cyclopropanecarboxamido)-1H-pyrazol-1-yl)-4-(cyanomethyl)-N-(3,3-difluorocyclobutyl) piperidine-1-carboxamide]",7.32,8.64,< 6.00,–,–,–
N#CC[C@]1(n2cc(C(N)=O)c(NC(=O)C3CC3)n2)CC[C@H](N2CC3(CCC3)C2)CC1 [Example 107],7.37,–,< 6.00,8.48,–,–
N#CCC1(n2cc(C(N)=O)c(NC(=O)C3CC3)n2)CCN(Cc2ccc(-n3cccn3)cc2)CC1 [Example 87],7.60,8.66,6.46,–,–,–
"COC(=O)Nc1nn(C2(CC#N)CCC(N3CC(F)(c4ccccc4)C3)CC2)cc1C(N)=O (stereo not drawn) [Example 243, methyl N-[4-carbamoyl-1-[1-(cyanomethyl)-4-(3-fluoro-3-phenyl-azetidin-1-yl)cyclohexyl]pyrazol-3-yl]carbamate]",7.85,8.57,7.00,–,–,–
"COC(=O)Nc1nn(C2(CC#N)CCN(Cc3ccc(-c4ccccc4)nc3)CC2F)cc1C(N)=O (stereo not drawn) [Example 196, methyl N-[4-carbamoyl-1-[4-(cyanomethyl)-3-fluoro-1-[(6-phenyl-3-pyridyl)methyl]-4-piperidyl]pyrazol-3-yl]carbamate]",9.57,9.59,7.52,–,–,–
N#CCC1(n2cc(C(N)=O)c(NC(=O)C3CC3)n2)CCN(Cc2ccc(C#N)cc2)CC1 [Example 66],7.30,8.40,6.04,–,–,–
CCS(=O)(=O)Nc1cccc(CN2CCC(CC#N)(n3cc(C(N)=O)c(NC(=O)C4CC4)n3)CC2)c1 [Example 75],7.85,8.57,< 6.00,–,–,–
"N#CCC1(n2cc(C(N)=O)c(NC(=O)C3CC3)n2)CCN(Cc2ccc(-n3nccn3)cc2)CC1F (stereo not drawn) [Example 199, 1-[4-(cyanomethyl)-3-fluoro-1-[[4-(triazol-2-yl)phenyl]methyl]-4-piperidyl]-3-(cyclopropanecarbonylamino) pyrazole-4-carboxamide]",9.26,9.28,7.19,–,–,–
"N#CCC1(n2cc(C(N)=O)c(NC(=O)C3CC3)n2)CCN(Cc2ccc(-c3ccccc3)cc2O)CC1 [Example 204, 1-[4-(cyanomethyl)-1-[(2-hydroxy-4-phenyl-phenyl)methyl]-4-piperidyl]-3-(cyclopropanecarbonylamino) pyrazole-4-carboxamide]",8.74,9.00,7.30,–,–,–
"N#CCC1(n2cc(C(N)=O)c(NC(=O)C3CC3)n2)CCN(CC2CCC(c3ccccc3)CC2)CC1F (stereo not drawn) [Example 233, 1-[4-(cyanomethyl)-3-fluoro-1-[(4-phenylcyclohexyl)methyl]-4-piperidyl]-3-(cyclopropanecarbonylamino) pyrazole-4-carboxamide]",9.35,9.52,7.41,–,–,–
CCC1(n2cc(C(N)=O)c(Nc3ccc(S(=O)(=O)C(F)F)cc3)n2)CCN(C(=O)CC#N)CC1 [Example 304],8.55,9.31,6.66,–,–,–
"Cc1c(CN2CCC(CC#N)(n3cc(C(N)=O)c(NC(=O)C4CC4C#N)n3)C(F)C2)ccc(-c2ccccc2)c1O (stereo not drawn) [Example 250, 3-[(2-cyanocyclopropanecarbonyl)amino]-1-[4-(cyanomethyl)-3-fluoro-1-[(3-hydroxy-2-methyl-4-phenyl-phenyl)methyl]-4-piperidyl]pyrazole-4-carboxamide; formic acid]",9.08,9.51,7.10,–,–,–
